Results as given in patent publication US8633232B2, “Compounds, compositions and methods of using same for modulating uric acid levels” (Ardea Biosciences, Inc., priority 2008, dated 2014).
Counter-ions that a name gives are not always drawn.

Assays:
[1] = In vitro metabolic stability in human liver microsomes; format: in vitro ADME; settings: 1 uM test compound, 1 mg/mL HLM, 1 mM NADPH, 30 minute incubation at 37° C.
Procedure: (§1) In vitro metabolic stability was assessed in rat and human liver microsomes (RLM/HLM). The incubation mixer contained the following: 1 uM test compound, 1 mg/mL HLM/RLM, 100 mM potassium phosphate buffer at pH 7.4, 1 mM NADPH and 5 mM MgCl2. This mixture was preincubated for 3 min before the 30 minute incubation at 37° C. The reaction was initiated with the addition of NADPH and terminated by the addition of equal volume of acetonitrile with internal standard. Incubation samples without NADPH were used as control samples. After vortexing and centrifugation, the supernatant was injected onto LC-MS/MS for quantitation.

hURAT1 Transporter = target: T1, hURAT1 Transporter (Homo sapiens, UniProt Q96S37); test: Uric Acid Uptake Assay; format: cell-based; settings: HEK293/urat1 cells; C14 Uric Acid 40 μM; 10 minutes at room temperature
T1 construct: Full-length human URAT1 gene (SLC22A12) was subcloned from plasmid pCMV6-XL5
T1 sequence (Q96S37 1-553): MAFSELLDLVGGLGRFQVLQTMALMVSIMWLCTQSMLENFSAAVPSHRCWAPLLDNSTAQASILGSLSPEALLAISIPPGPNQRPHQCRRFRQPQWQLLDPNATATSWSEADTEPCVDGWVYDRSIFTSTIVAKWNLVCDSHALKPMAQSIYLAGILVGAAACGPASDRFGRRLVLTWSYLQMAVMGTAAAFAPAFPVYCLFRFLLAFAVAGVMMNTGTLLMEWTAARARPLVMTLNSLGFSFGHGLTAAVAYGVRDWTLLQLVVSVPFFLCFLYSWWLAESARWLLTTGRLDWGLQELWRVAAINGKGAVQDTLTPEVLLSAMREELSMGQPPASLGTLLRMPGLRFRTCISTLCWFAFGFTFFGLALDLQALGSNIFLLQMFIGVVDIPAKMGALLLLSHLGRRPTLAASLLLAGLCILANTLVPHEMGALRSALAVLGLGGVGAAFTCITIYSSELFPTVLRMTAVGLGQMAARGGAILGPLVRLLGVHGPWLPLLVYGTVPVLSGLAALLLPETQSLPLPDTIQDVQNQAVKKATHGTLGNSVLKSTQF
Text: Creation of Stable Cell Lines Expressing hURAT1 Transporter: Full-length human URAT1 gene (SLC22A12) was subcloned from plasmid pCMV6-XL5 (Origene) into eukaryotic expression plasmid pCMV6/Neo (Origene) using Not I restriction sites. Gene sequencing confirmed the sequence of hURAT1 as outlined in Genbank (Accession #NM_144585.2). HEK293 human embryonic kidney cells (ATCC#CRL-1573) were propagated in EMEM tissue culture medium as described by ATCC in an atmosphere of 5% CO2 and 95% air. Transfections of HEK293 cells with the pCMV6/Neo/URAT1 construct were performed using L2000 transfection reagent (Invitrogen) as described by the manufacturer. After 24 h the transfected cells were split into 10 cm tissue culture plates and grown for 1 day after which the medium was replaced with fresh growth medium containing G418 (Gibco) at 0.5 mg/ml final concentration. Drug-resistant colonies were selected after approximately 8 days and then tested for ^14C-uric acid transport activity. The HEK293/urat1 cells are plated on Poly-D-Lysine Coated 96-well Plates at a density of 75,000 cells per well.
Cells were grown overnight (20-26 hours) at 37° C. in an incubator. Plates were allowed to come to room temperature and media was washed out with one wash of […] of Wash Buffer (125 mM Na Gluconate, 10 mM Hepes ph 7.3). Compound or vehicle is added in assay buffer with C14 Uric Acid for a final concentration of 40 μM Uric Acid with a specific activity of 54 mCi/mmol. Assay Buffer is 125 mM Sodium Gluconate, 4.8 mM Potassium Gluconate, 1.2 mM Potassium phosphate, monobasic, 1.2 mM magnesium sulfate, 1.3 mM Ca Gluconate, 5.6 mM Glucose, 25 mM HEPES, pH 7.3. Plates were incubated at room temperature for 10 minutes then washed 3 times with 50 μl Wash Buffer and 3 times with 250 μl Wash Buffer. Microscint 20 Scintillation Fluid was added and plates were incubated overnight at 45° C. to equilibrate. Plates are then read on the TopCount Plate Reader and an EC50 value generated. (See Enomoto et al, Nature, 2002, 417, 447-451 and Anzai et al, J. Biol. Chem., 2004, 279, 45942-45950.).
Compounds prepared as described herein, were examined according to the procedure described above and EC50 values generated. […] (N/A means data not available).

[2] = In vitro metabolic stability in rat liver microsomes; format: in vitro ADME; settings: 1 uM test compound, 1 mg/mL RLM, 1 mM NADPH, 30 minute incubation at 37° C.
Procedure: as §1

[3] = Solubility in test solvents; settings: for Solubility: 22° C., 24 hours
Procedure: When it appeared the saturation point was being reached, addition was stopped, and the eppendorf vial was shaken at a constant speed of 1000 rpm at 22° C. for 24 hours. The tubes were then centrifuged for 5 minutes at 10-15,000 rpm, and checked for precipitation. Samples were diluted with acetonitrile/water, (1/1) (or iso-propyl alcohol for hexane) and analyzed by HPLC against known standards.

[4] = tested on: healthy adult male human volunteers; test: In vivo uric acid lowering activity, multiple ascending dose placebo-controlled study
Procedure: 16 healthy male individuals, aged 18-45 years inclusive, with a body mass index (BMI) within 18-30 kg/m^2 inclusive, having provided a written informed consent, non smokers for at least 6 months, not using any drug treatment for 2 weeks before screening (2 months for enzyme-inducing drugs) except occasional Acetaminophen. The individuals were confined at the clinical site beginning the day before dose administration until 72 hours after the final dose administration on Day 17 and returned for a follow-up visit on Day 21±1.
Matching placebo capsules were supplied as size 2 gelatin capsules. Individuals were randomized to receive the same number of placebo capsules as administered to the active individuals.
Capsules (active or placebo) were administered orally with 240 mL water 30 min after a standard breakfast (morning dose) and dinner (evening dose) for 14 days.
16 individuals (8 individuals [6 active and 2 placebo] per dose group). • a. Group 1: Placebo • b. Group 2: 300 mg (3×100-mg capsules) example 1 b.i.d. • c. Group 3: 500 mg (5×100-mg capsules) example 1 b.i.d.
Blood was collected from the individuals on days 0, 3, 7, 14 and at follow-up. Serum uric levels were measured using standard automated procedures. The results are shown in the table below (uric acid levels in μmol/L).

[5] = 300 mg b.i.d. oral, Day 3, n = 6, serum
[6] = 300 mg b.i.d. oral, Day 7, n = 6, serum
[7] = 300 mg b.i.d. oral, Day 14, n = 6, serum
[8] = 300 mg b.i.d. oral, Follow up, n = 6, serum
[9] = 500 mg b.i.d. oral, Day 7, n = 6, serum
[10] = 500 mg b.i.d. oral, Day 14, n = 6, serum
[11] = 500 mg b.i.d. oral, Follow up, n = 6, serum

CC(C)(Sc1nnc(Br)n1-c1ccc(C2CC2)c2ccccc12)C(=O)O [Example 3, 2-(5-Bromo-4-(4-cyclopropylnaphthalen-1-yl)-4H-1,2,4-triazol-3-ylthio)-2-methylpropanoic acid]
Liver Microsome Stability % Remaining Human [1]: 97 ± 2% | EC50 (hURAT1 Transporter): 0.001 to 1 µM | Liver Microsome Stability % Remaining Rat [2]: 98 ± 0.1%

O=C(O)CSc1nnc(Br)n1-c1ccc(C2CC2)c2ccccc12 [Piperazine salt, 2-(5-bromo-4-(4-cyclopropylnaphthalen-1-yl)-4H-1,2,4-triazol-3-ylthio)acetate]
Solubility ([3]; Acetone): 260 µg/mL | Solubility ([3]; DMSO): ~54000 µg/mL | Solubility ([3]; EtOAc): 55 µg/mL | Solubility ([3]; Ethanol): 9100 µg/mL | Solubility ([3]; IPA): 1600 µg/mL | Solubility ([3]; PEG-400): 2400 µg/mL

O=C(O)CSc1nnc(Br)n1-c1ccc(C2CC2)c2ccccc12 [Example 104, Sodium 2-(5-bromo-4-(4-cyclopropylnaphthalen-1-yl)-4H-1,2,4-triazol-3-ylthio)acetate]
solubility at 24 h ([3]; 22 °C, pH 4.85, water, thermodynamic from solid, Solubility (mg/mL)): 49200 µg/mL

O=C(CSc1nnc(Br)n1-c1ccc(C2CC2)c2ccccc12)Nc1ccc(C(=O)[O-])cc1Cl.[K+] [4-(2-(5-bromo-4-(4-cyclopropylnaphthalen-1-yl)-4H-1,2,4-triazol-3-ylthio)acetamido)-3-chlorobenzoic acid, potassium salt]
Uric acid (μmol/L) MEAN [4, 5]: -100.3229 µmol/L | Uric acid (μmol/L) MEDIAN [4, 5]: -101.4134 µmol/L | Uric acid (μmol/L) MEAN [4, 6]: -126.2959 µmol/L | Uric acid (μmol/L) MEDIAN [4, 6]: -119.8522 µmol/L | Uric acid (μmol/L) MEAN [4, 7]: -121.2401 µmol/L | Uric acid (μmol/L) MEDIAN [4, 7]: -104.9822 µmol/L | Uric acid (μmol/L) MEAN [4, 8]: -2.2801 µmol/L | Uric acid (μmol/L) MEDIAN [4, 8]: 0.8922 µmol/L | Uric acid (μmol/L) MEDIAN ([4]; 500 mg b.i.d. oral, Day 3, n = 6, serum): -112.1198 µmol/L | Uric acid (μmol/L) MEAN [4, 9]: -127.6837 µmol/L | Uric acid (μmol/L) MEDIAN [4, 9]: -144.2390 µmol/L | Uric acid (μmol/L) MEAN [4, 10]: -111.8224 µmol/L | Uric acid (μmol/L) MEDIAN [4, 10]: -124.9080 µmol/L | Uric acid (μmol/L) MEAN [4, 11]: 27.2617 µmol/L | Uric acid (μmol/L) MEDIAN [4, 11]: 27.3608 µmol/L

Cc1ccc2c(C)ccc(-n3cnnc3SCC(=O)O)c2c1 [Example 2, 2-(4-(4,7-Dimethylnaphthalen-1-yl)-4H-1,2,4-triazol-3-ylthio)acetic acid]
EC50 (hURAT1 Transporter): > 30 µM

CCCSc1nnc(Br)n1-c1ccc(C2CC2)c2ccccc12
EC50 (hURAT1 Transporter): 1 to 30 µM

Cc1nnc(SCC(=O)O)n1-c1ccc(Oc2ccccc2)cc1
EC50 (hURAT1 Transporter): > 30 µM

CCOC(=O)C(C)(C)Sc1nnc(Br)n1-c1ccc(C2CC2)c2ccccc12 [ethyl 2-(5-bromo-4-(4-cyclopropylnaphthalen-1-yl)-4H-1,2,4-triazol-3-ylthio)-2-methylpropanoate]
EC50 (hURAT1 Transporter): 0.001 to 1 µM

CC(Sc1nnc(Br)n1-c1ccc(C2CC2)c2ccccc12)C(=O)O (stereo not drawn)
EC50 (hURAT1 Transporter): 0.001 to 1 µM

COc1ccc(Cl)c(-n2c(SCC(=O)O)nnc2C(F)F)c1
EC50 (hURAT1 Transporter): > 30 µM

Cc1ccc(-n2c(SCC(=O)O)nnc2C(F)F)c2ccccc12
EC50 (hURAT1 Transporter): 1 to 30 µM

Cc1cc(C)c(-n2cnnc2SCC(=O)O)c2c1CCCC2
EC50 (hURAT1 Transporter): > 30 µM

Nc1nnc(SCCCC(=O)O)n1-c1ccc(C2CC2)c2ccccc12
EC50 (hURAT1 Transporter): 1 to 30 µM

Cc1cccc(C)c1-n1c(C)nnc1SCC(=O)O
EC50 (hURAT1 Transporter): > 30 µM

CCc1ccc(-n2c(Br)nnc2SCC(=O)O)c2cc(OC)ccc12
EC50 (hURAT1 Transporter): 1 to 30 µM

CCCSc1nnc(N)n1-c1ccc(C2CC2)c2ccccc12
EC50 (hURAT1 Transporter): > 30 µM

CCc1ccc(-n2c(SCC(=O)O)nnc2C(F)F)c2ccccc12 [Example 4, 2-(5-(difluoromethyl)-4-(4-ethylnaphthalen-1-yl)-4H-1,2,4-triazol-3-ylthio)acetic acid]
EC50 (hURAT1 Transporter): 1 to 30 µM

Cc1nnc(SCC(=O)O)n1-c1cc(Cl)ccc1Cl
EC50 (hURAT1 Transporter): > 30 µM

CCOC(=O)CSc1nnc(C(F)(F)F)n1-c1ccc(OC)c2c1CCCC2
EC50 (hURAT1 Transporter): > 30 µM

CCOC(=O)CSc1nncn1-c1ccc(C)c2c1CCCC2
EC50 (hURAT1 Transporter): 1 to 30 µM

Cc1nnc(SCC(=O)O)n1-c1ccccc1F
EC50 (hURAT1 Transporter): > 30 µM
